Experimental data taken from patent US20060057071A1, “Paramagnetic complexes with pendant crown compounds showing improved targeting-specificity as MRI contrast agents” (priority 2004, published 2006).

Assay: Luminescence lifetime measurements for inner-sphere water molecules q (Tb complexes)
Assay type: physicochemical
Settings: for kH2O, absolute emission depopulation rate constant: in H2O; for kH2O, absolute emission depopulation rate constant / kH2O (Table 1), absolute emission depopulation rate constant / q, hydration state: pH 6.9 (0.1 M Tris/HCl), 298 K; for kH2O, absolute emission depopulation rate constant / kH2O (Table 1), absolute emission depopulation rate constant: ±10%; for kH2O (Table 1), absolute emission depopulation rate constant: title names H2O and D2O; for q, hydration state: q^Tb = 5 (1/τH2O - 1/τD2O-0.06); for inner-sphere coordinated (bound) water molecules: luminescent measurements, pH 6.9
Description: As previously mentioned, inner-sphere proton relaxivity is linearly proportional to the number of water molecules q that are directly coordinated to the Gd^3+ center. However, there is a trade-off between the q value and toxicity. […] It is noteworthy that there is no direct method of measuring the hydration number. The two commonly used indirect methods are as follows: (1) Lanthanide-induced shift (LIS) methods (see, Alpoim et al., J. Chem. Soc., Dalton Trans., 1992, 463). For paramagnetic Ln^3+ ions, the plot of the observed ^17O shift in Ln^3+ chelate solution versus the complex concentration gives a straight line, with the slope being proportional to its hydration number. (2) The lanthanide luminescence method. According to the Horrocks equation, the q value can be calculated by the emission rate constants for the depopulation of Tb^3+ or Eu^3+ complexes measured in H2O and D2O (see, Beeby at al., J. Chem. Soc., Perkin Trans. 2, 1999, 493). With this method, the q values of the Gd^3+ complexes in aqueous solution can be measured indirectly by their corresponding Tb^3+ or Eu^3+ complexes, because of the very similar coordination behavior between these three lanthanide ions.
Luminescence lifetime measurements were all obtained on a Perkin-Elmer LS 50B spectrofluorimeter with a 420 nm cut-off filter. The concentration of the complex was 1×10^−5˜1×10^−4 mol dm^−3. The emission of Tb^3+ or Eu^3+ complexes was monitored at […]. Gd^3+ is a neighbor of Eu^3+ and Tb^3+ with a nearly identical ionic radius, and thus their chemistries are virtually identical. Therefore, the Horrocks equation for determining the number of coordinated water molecules q for Eu^3+ and Tb^3+ is still valid for the calculation of the q value of Gd^3+. In general, the number of coordinated water molecules q can be determined by the measurement of the luminescent lifetime of the complexes separately in H2O and D2O by application of the Horrocks equation. q′corr=A′(kH2O−kD2O−a) where k is the constant for depopulation (reciprocal of luminescent lifetime), and A is a proportionality constant that signifies the sensitivity of the lanthanide ion to vibronic quenching by OH oscillators. a is correlation value for the consideration of the outer-sphere water molecules.

Row | kH2O, absolute emission depopulation rate constant [ms^−1] | kH2O (Table 1), absolute emission depopulation rate constant [ms^−1] | q, hydration state | inner-sphere coordinated (bound) water molecules | Compound
1 | 0.48 | 0.27 | 0.8 |  | O=C([O-])CN1CCN(CC(=O)[O-])CCN(CC(=O)[O-])CCN(CC(=O)[O-])CC1.[Tb+3] [Tb-DOTA, reference compound]
2 | 0.88 | 0.42 | 2.0 |  | O=C([O-])CN1CCNCCN(CC(=O)[O-])CCN(CC(=O)[O-])CC1.[Tb+3] [Tb-DO3A, reference compound]
3 | 0.50 | 0.31 | 0.7 | one | O=C([O-])CN1CCN(CC(=O)[O-])CCN(CC(=O)N2CCOCCOCCN(Cc3ccc4ccccc4n3)CCOCCOCC2)CCN(CC(=O)[O-])CC1.[Tb+3] [TbL3]
4 | 0.74 | 0.35 | 1.7 | two | O=C([O-])CN1CCN(CCOCC2COCCOCCOCCOCCO2)CCN(CC(=O)[O-])CCN(CC(=O)[O-])CC1.[Tb+3] (stereo not drawn) [TbL2]

Row | Compound | kH2O, absolute emission depopulation rate constant [ms^−1] | kH2O (Table 1), absolute emission depopulation rate constant [ms^−1] | q, hydration state | inner-sphere coordinated (bound) water molecules
5 | O=C([O-])CN1CCN(CCN2CCOCCOCCOCCOCC2)CCN(CC(=O)[O-])CCN(CC(=O)[O-])CC1.[Tb+3] [TbL1] | 0.72 | 0.34 | 1.6 | two
